Source: patent publication US4785080A, “Labeled analytes” (Baker Instruments Corporation, priority 1985, dated 1988)
Several values for one entry are separate records, joined by “and”; a condition that tells them apart may be missing. Equal values may be shown once.

Key:
Format in all cases: binding
dilantin antibody [1] = assay: Homogeneous immunoassay of dilantin standards and clinical samples, automatic data reduction (Example XXI); conditions: human serum
Method: This Example illustrates the design of an assay capable of directly assaying clinical samples, the use of the automatic pipetter (Model P-500) associated with the Centrifichem® 500 centrifugal fast analyzer, and the use of automatic data reduction.
The following reagents were utilized:
a. Labeled Analyte: Dilantin-S-peptide labeled analyte in 0.1 M triethanolamine (TEA)-HCl buffer, prepared in the manner described in Examples V-VIII was used.
b. Antibody: Anti-dilantin antiserum (150 ul) was diluted with 900 ul of 0.1M TEA-HCl buffer of pH 7.1;
c. Substrate: 5'-O-acetyl 2'-O-(tetrahydro pyran-2-yl) uridine 3'-(4-methylumbelliferone-7-yl ammonium phosphate) (6.4 mg) was added to 285.2 ul of 0.05N HCl and stirred at room temperature for 30 minutes. Sodium acetate buffer (714.8 ul, 0.1M, pH 5.0) was then added;
S-protein: A 12.3×10^-5 M solution of Sigma S-protein was made up in 0.1M TEA-HCl buffer (pH 7.1);
e. Dilantin standards: Solutions of 5, 5-diphenylhydantoin sodium salt (Sigma lot 64C-0027) were made up in human serum at concentrations of 2.5, 5.0, 10.0, 20.0 and 30.0 ug/ml.
A mixture of 16 ul S-peptide labeled analyte, 10 ul of human serum albumin, 1430 ul of TEA-HCl buffer, and the substrate solution described in (c.) was prepared (designated Reagent 1). A second mixture consisting of 150 ul of antiserum, 50 ul of S-protein, and 1937.5 ul of TEA buffer was prepared (designated Reagent 2). Using the CentrifiChem® P-500 automatic pipetter, 4 ul of the appropriate standard solution was simultaneously diluted with 45 ul of deionized H2 O and pipetted into the sample well of transfer disc. At the same time, the pipetter delivered 250 ul of Reagent 1 into the reagent well and 100 ul of Reagent 2 into the sample well. Instrumental parameters for the CentrifiChem® 500 centrifugal fast analyzer were the same as that for Example XX with the exception that Test Code 29 was used. This provides for automatic data reduction by the microprocessor unit of the CentrifiChem® 500 instrument.

dilantin antibody [2] = assay: Heterogeneous double antibody solid phase immunoassay of dilantin, free phase catalytic activity (Example XXII)
Method: A standard displacement curve is generated from the catalytic activity measurement using 5'-O-acetyluridyl-3'-(4-methylumbelliferone-7-yl) phosphate as a fluorogenic substrate for determination of analyte concentration of the control serum.
(§1) The following reagents were prepared:
a. Dilantin-S-peptide labeled analyte: Labeled analyte in TEA-HCl buffer was prepared in the manner described in Examples V-VIII; 120 ul was diluted with 2860 ul of TEA-HCl buffer.
b. Antibody: Anti-dilantin antisera (300 ul) was diluted with 1800 ul of TEA-HCl buffer.
c. Solid phase immobilized second antibody: Bio-Rad IMMUNOBEAD™, Lot 17003, 50 mg was reconstituted with 50 ml of TEA-HCl buffer.
d. Substrate: 5'-O-acetyl-2'-O-(tetrahydropyran-2-yl) uridyl-3'-(4-methylumbelliferone-7-yl) ammonium phosphate, 35 mg, was deblocked with 1.5 ml of 0.025M HCl for 40 minutes at room temperature and extracted twice with 5 ml of ether. The residual ether was removed by the stream of air and the acidic solution was buffered with acetate buffer to 100 ml.
e. Acetate buffer: Sodium acetate buffer, 0.1M, pH 5.0.
f. TEA-HCl buffer: Triethanolamine-HCl buffer, 0.05M, pH 7.5.
g. […]
h. S-protein: Sigma purified solution was diluted 1/20 in acetate buffer.
[…] Antibody aliquots of 100 ul were pipetted into each duplicate tube of standards and the resulting mixtures were vortexed and incubated for 20 minutes at room temperature. Dilantin-S-peptide labeled analyte aliquots of 100 ul each were then pipetted into all tubes. The resulting mixture was incubated for 20 mintes at room temperature.
TEA-HCl buffer (108 ul), and Dilantin-S-peptide labeled analyte (100 ul) were pipetted into duplicate assay tubes labeled total. The resulting mixtures were mixed by vortexing and incubated for 20 minutes at room temperature.
Next a second antibody solution of 500 ul each was pipetted into all tubes except for total assay tubes. TEA-HCl buffer (500 ul) was pipetted into total assay tubes. The resulting mixtures were mixed by vortexing and were incubated for 60 minutes at room temperature. All assay tubes except total were centrifuged for 5 minutes at 3000 rpm at 5°-10° C.
The supernatant (free phase) of each tube was transferred into new tubes marked accordingly. The solid phase was resuspended with 0.5 ml of TEA buffer in each tube and centrifuged as above. The supernatant was decanted off.
Dose responsive catalytic activity was measured as follows:
An aliquot sample (50 ul each) of the free phase and total were assayed respectively with 1.8 ml of substrate and 50 ul of S-protein, measuring the fluorogenic product formation by emission at 440 nm when the mixture was excited at 325 nm, using a. Farrand Mark 1 fluorimeter.
The raw data were fit by a modified log-logit algorithm where the rates at infinite and 0 standard concentrations are obtained by an iterative procedure. Each data point in the Table represents the mean of duplicate points.

dilantin antibody [3] = assay: Reference displacement curve for dilantin, colorimetric, CentrifiChem 500 (Example XX)
Method: This Example illustrates the generation of a reference displacement curve for the dilantin analyte on the CentrifiChem®500 centrifugal fast analyzer. A […] substrate, 5'-O-acetyl-uridine-3'(4-methylumbelliferone-7-yl phosphate), was used.
as §1
a. Dilantin S-peptide labeled analyte: Material prepared in the manner described in Examples V-VIII in 0.1M triethanolamine (TEA)-HCl buffer was used.
b. Antibody: Anti-dilantin antisera was diluted by a factor of 1/20 with 0.1M TEA-HCl buffer of pH 7.1;
c. Substrate: Seventeen milligrams of 5'-O-acetyl 2'-O-(tetrahydropyran-2-yl) uridine 3'-(4-methylumbelliferone-7-yl ammonium phosphate) was added to 750 ul 0.05N HCl and stirred at room temperature for 30 min. Sodium acetate buffer, (1.880 ml, 0.1M, pH 5..0), was added. Just before use, 300 ul of this solution was combined with 5.094 ml of 0.1M TEA-HCl buffer of pH 7.1;
d. S-protein: Sigma purified commercial material was diluted by a factor of 1:100 with 0.1M TEA-HCl buffer of pH 7.1 to give a solution having a concentration of 1.53×10^-6 M;
e. Dilantin standards: A stock solution of 5,5-diphenylhydantoin sodium salt (Sigma Lot 64C-0027) was made up by dissolving 48 mg in 1 liter of 0.025N sodium hydroxide. This was diluted by a factor of 1:10 with 0.025N sodium hydroxide to give a solution having 4.8 ug/ml. This was further diluted to give standard solutions having concentrations of 19.1, 47.8, 95.8, 143.6, and 191.5 ng/ml.
The CentrifiChem® 500 centrifugal fast analyzer had the following instrument settings: rotor temp, 30°; filter, nm; To, 10 sec; T, 1 min; ABS 1.0 u; Blank, hold; test mode, Term; print out, ABS; conc. factor, 0; test code 0.
Antibody, dilantin-S-peptide and 16.6 ul of the standard solution were pipetted into the sample well of channels to 16 of the transfer disc. S-protein and 300 ul of substrate were pipetted into each of the corresponding reagent wells of the transfer disc. The transfer disc was placed on the rotor and spun. […] Catalytic activity rates (a.u./min) were obtained frcm a least squares, regression analysis of absorbances as a function of time.

O=C1NC(=O)C(c2ccccc2)(c2ccccc2)N1 [dilantin, 5,5-diphenylhydantoin]
10^3 Response (dilantin antibody [1]; standard 2.5 ug/ml): 230 a.u. and 231 a.u. | 10^3 Response (dilantin antibody [1]; standard 5 ug/ml): 252 a.u. and 256 a.u. | 10^3 Response (dilantin antibody [1]; standard 10 ug/ml): 358 a.u. and 373 a.u. | 10^3 Response (dilantin antibody [1]; standard 20 ug/ml): 512 a.u. and 494 a.u. | 10^3 Response (dilantin antibody [1]; standard 30 ug/ml): 525 a.u. and 524 a.u. | Rate, Mean (dilantin antibody [2]; standard 2.5 (ug/ml)): 10.0 na/min. | Rate, Mean (dilantin antibody [2]; standard 5.0 (ug/ml)): 10.5 na/min. | Rate, Mean (dilantin antibody [2]; standard 10.0 (ug/ml)): 14.0 na/min. | Rate, Mean (dilantin antibody [2]; standard 20.0 (ug/ml)): 16.5 na/min. | Rate, Mean (dilantin antibody [2]; standard 30.0 (ug/ml)): 19.0 na/min. | Rate, Mean (dilantin antibody [2]; standard 40.0 (ug/ml)): 20.5 na/min. | Rate (dilantin antibody [3]; standard 19.1 ng/ml): 0.0154 a.u./min and 0.0171 a.u./min | Rate (dilantin antibody [3]; standard 47.8 ng/ml): 0.0183 a.u./min and 0.0158 a.u./min | Rate (dilantin antibody [3]; standard 95.8 ng/ml): 0.0191 a.u./min and 0.0197 a.u./min | Rate (dilantin antibody [3]; standard 143.6 ng/ml): 0.0204 a.u./min and 0.0180 a.u./min | Rate (dilantin antibody [3]; standard 191.5 ng/ml): 0.0209 a.u./min and 0.0205 a.u./min
